One assay addresses T1, α2C adrenergic receptor (Homo sapiens, UniProt P18825).
T1 sequence (P18825 1-462): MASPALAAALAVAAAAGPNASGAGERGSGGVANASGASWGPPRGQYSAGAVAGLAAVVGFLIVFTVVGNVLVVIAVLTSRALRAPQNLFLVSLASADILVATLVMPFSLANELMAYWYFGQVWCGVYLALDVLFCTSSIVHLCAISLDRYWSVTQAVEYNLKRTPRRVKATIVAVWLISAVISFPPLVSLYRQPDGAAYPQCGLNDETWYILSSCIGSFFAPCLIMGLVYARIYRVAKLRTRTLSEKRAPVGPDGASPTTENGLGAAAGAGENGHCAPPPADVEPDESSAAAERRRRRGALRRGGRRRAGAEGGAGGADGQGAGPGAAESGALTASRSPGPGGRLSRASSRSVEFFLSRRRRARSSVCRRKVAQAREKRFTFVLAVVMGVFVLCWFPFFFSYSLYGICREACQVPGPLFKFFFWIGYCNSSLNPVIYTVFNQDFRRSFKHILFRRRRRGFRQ
In words: PDSP radioligand binding, α2C. As to conditions: for Ki: full concentration-response curves, n = 3-6 unless noted; for inhibition at 10 µM: read-out: % inhibition at 10 µM, single concentration 10 µM.

Assay [1] concerns the target 5HT2B serotonergic receptor (Homo sapiens, UniProt P41595). Description: PDSP radioligand binding, 5HT2B. As to conditions: for Ki: full concentration-response curves, n = 3-6 unless noted; for inhibition at 10 µM: read-out: % inhibition at 10 µM.
The target in assay [2] is 5HT5A serotonergic receptor (Homo sapiens, UniProt P47898). In words: PDSP radioligand binding, 5HT5A. As to conditions: for inhibition at 10 µM: read-out: % inhibition at 10 µM, single concentration 10 µM.
Chain of 5HT5A serotonergic receptor (P47898 whole entry): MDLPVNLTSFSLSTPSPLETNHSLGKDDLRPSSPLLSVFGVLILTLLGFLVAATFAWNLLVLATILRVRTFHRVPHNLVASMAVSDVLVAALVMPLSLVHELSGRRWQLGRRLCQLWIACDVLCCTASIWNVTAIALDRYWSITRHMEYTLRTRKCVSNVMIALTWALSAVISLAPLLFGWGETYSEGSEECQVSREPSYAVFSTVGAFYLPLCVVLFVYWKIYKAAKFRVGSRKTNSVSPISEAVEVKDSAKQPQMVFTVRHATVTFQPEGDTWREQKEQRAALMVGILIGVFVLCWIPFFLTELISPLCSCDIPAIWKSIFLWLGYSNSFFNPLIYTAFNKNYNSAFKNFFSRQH
Assay [3] deals with 5HT7 serotonergic receptor (Homo sapiens, UniProt P34969). Description: PDSP radioligand binding, 5HT7. The following applies: read-out: % inhibition at 10 µM; single concentration 10 µM.
Chain of 5HT7 serotonergic receptor (P34969 whole entry): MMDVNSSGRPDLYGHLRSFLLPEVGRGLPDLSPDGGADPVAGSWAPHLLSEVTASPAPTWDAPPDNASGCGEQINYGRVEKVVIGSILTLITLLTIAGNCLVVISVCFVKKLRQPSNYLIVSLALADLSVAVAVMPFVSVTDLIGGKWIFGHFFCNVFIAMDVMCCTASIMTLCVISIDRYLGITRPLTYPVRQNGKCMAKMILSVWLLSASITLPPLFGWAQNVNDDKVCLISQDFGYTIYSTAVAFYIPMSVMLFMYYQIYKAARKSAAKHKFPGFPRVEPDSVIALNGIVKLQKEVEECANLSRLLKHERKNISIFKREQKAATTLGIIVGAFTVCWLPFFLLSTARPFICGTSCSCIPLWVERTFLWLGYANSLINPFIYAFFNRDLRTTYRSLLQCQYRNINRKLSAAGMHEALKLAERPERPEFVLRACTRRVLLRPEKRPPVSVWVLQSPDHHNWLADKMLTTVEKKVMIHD
Another assay has as its target δ opioid receptor (Homo sapiens, UniProt P41143). In words: PDSP radioligand binding, δ opioid. The following applies: read-out: % inhibition at 10 µM; single concentration 10 µM.
The target in assay [4] is peripheral benzodiazepine receptor (PBR) (Rattus norvegicus, UniProt P16257). In words: PDSP radioligand binding, PBR. The following applies: read-out: % inhibition at 10 µM; single concentration 10 µM.
The target of another assay is T2, α1A adrenergic receptor (Homo sapiens, UniProt P35348).
T2 sequence (P35348 1-466): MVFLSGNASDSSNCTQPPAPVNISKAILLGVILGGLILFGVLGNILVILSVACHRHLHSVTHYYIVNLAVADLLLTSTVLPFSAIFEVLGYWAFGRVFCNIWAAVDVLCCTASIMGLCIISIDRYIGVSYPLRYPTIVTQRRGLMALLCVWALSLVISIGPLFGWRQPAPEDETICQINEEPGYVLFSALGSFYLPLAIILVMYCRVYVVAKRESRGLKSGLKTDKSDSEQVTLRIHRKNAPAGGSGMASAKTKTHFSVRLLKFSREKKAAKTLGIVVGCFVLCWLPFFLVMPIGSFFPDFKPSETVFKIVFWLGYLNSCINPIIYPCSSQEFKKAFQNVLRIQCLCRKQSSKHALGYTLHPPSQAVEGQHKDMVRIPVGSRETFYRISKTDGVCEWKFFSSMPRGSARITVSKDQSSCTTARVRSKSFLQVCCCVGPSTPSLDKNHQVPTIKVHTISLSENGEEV
Description: PDSP radioligand binding, α1A. As to conditions: read-out: % inhibition at 10 µM; single concentration 10 µM.

For the next assay, the target named is T3, α1D adrenergic receptor (Homo sapiens, UniProt P25100).
T3 sequence (P25100 1-572): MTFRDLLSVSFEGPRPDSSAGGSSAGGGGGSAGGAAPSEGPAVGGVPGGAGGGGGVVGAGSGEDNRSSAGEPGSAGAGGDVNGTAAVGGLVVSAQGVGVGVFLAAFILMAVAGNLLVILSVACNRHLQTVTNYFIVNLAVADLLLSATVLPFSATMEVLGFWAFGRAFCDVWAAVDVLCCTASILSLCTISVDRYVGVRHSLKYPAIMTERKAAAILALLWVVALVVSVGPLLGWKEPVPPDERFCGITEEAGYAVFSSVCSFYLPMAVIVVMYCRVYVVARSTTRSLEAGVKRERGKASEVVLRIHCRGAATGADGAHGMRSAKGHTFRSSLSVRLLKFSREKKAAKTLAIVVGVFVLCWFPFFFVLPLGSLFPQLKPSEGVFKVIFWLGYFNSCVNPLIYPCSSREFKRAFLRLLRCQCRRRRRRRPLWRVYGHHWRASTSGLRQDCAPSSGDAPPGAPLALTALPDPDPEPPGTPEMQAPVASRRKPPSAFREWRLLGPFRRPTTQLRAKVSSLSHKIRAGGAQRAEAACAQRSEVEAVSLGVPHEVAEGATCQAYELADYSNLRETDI
In words: PDSP radioligand binding, α1D. As to conditions: read-out: % inhibition at 10 µM; single concentration 10 µM.

The target of another assay is β1 adrenergic receptor (Homo sapiens, UniProt P08588). In words: PDSP radioligand binding, β1. As to conditions: read-out: % inhibition at 10 µM; single concentration 10 µM.
Chain of β1 adrenergic receptor (P08588 whole entry, species assumed): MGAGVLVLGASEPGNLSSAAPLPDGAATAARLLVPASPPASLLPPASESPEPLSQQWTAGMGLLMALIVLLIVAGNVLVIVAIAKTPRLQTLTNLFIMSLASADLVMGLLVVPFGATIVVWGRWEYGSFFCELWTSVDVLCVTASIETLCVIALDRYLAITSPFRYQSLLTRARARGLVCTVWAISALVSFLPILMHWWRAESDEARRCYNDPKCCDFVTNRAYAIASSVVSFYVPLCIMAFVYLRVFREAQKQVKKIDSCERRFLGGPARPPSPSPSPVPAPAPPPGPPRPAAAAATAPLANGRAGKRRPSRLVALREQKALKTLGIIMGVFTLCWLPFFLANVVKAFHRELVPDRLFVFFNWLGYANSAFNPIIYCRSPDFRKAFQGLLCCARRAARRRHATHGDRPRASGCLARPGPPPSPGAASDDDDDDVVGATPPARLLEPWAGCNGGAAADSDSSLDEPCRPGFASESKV
The target of assay [5] is T4, M1 muscarinic acetylcholine receptor (Homo sapiens, UniProt P11229).
T4 sequence (P11229 1-460): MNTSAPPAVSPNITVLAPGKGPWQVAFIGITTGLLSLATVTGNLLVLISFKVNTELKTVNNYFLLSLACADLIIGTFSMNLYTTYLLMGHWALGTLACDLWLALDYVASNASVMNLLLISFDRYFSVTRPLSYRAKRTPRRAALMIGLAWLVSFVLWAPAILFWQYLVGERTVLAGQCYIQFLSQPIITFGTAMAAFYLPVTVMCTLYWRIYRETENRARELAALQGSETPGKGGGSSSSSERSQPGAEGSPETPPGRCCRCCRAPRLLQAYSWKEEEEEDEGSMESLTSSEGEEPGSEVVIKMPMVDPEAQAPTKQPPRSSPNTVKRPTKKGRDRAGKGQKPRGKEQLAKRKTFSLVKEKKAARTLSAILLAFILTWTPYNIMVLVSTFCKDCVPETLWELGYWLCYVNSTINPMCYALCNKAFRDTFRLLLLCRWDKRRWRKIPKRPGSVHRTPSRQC
Description: PDSP radioligand binding, M1. As to conditions: read-out: % inhibition at 10 µM; single concentration 10 µM.

Assay [6] addresses 5HT1E serotonergic receptor (Homo sapiens, UniProt P28566). In words: PDSP radioligand binding, 5HT1E. As to conditions: read-out: % inhibition at 10 µM; single concentration 10 µM.
For assay [7], the target named is 5HT2A serotonergic receptor (Homo sapiens, UniProt P28223). Description: PDSP radioligand binding, 5HT2A. As to conditions: read-out: % inhibition at 10 µM.
Chain of 5HT2A serotonergic receptor (P28223 whole entry): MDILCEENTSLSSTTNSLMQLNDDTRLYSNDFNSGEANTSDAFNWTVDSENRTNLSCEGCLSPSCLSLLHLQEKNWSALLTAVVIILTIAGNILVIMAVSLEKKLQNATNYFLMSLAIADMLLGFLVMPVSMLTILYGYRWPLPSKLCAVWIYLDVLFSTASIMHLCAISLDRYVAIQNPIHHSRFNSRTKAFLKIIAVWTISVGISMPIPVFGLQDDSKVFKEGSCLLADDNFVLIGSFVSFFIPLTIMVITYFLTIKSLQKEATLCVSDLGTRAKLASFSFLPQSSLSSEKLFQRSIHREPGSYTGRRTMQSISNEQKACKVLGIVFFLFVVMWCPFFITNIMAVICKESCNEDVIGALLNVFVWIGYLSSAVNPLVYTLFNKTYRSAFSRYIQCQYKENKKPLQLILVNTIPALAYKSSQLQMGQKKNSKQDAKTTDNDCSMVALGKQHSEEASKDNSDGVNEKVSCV
A further assay concerns GABAA receptor. In words: PDSP radioligand binding, GABAA. The following applies: single concentration 10 µM.

Several values for one entry are separate records, joined by “and”; a condition that tells them apart may be missing. Identical values can stand only once. Like-named read-outs stand apart in the source and are kept apart here.

Chain of δ opioid receptor (P41143 whole entry): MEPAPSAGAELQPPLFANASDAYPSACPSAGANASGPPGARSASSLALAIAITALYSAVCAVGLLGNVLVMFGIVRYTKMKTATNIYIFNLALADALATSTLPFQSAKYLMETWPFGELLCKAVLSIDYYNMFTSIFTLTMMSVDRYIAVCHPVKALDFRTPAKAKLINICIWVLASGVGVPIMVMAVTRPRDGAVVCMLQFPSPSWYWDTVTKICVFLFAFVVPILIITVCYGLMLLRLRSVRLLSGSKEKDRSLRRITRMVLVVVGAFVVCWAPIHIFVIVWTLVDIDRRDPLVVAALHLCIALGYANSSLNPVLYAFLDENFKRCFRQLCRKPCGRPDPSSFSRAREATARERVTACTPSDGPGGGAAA
Chain of 5HT2B serotonergic receptor (P41595 whole entry): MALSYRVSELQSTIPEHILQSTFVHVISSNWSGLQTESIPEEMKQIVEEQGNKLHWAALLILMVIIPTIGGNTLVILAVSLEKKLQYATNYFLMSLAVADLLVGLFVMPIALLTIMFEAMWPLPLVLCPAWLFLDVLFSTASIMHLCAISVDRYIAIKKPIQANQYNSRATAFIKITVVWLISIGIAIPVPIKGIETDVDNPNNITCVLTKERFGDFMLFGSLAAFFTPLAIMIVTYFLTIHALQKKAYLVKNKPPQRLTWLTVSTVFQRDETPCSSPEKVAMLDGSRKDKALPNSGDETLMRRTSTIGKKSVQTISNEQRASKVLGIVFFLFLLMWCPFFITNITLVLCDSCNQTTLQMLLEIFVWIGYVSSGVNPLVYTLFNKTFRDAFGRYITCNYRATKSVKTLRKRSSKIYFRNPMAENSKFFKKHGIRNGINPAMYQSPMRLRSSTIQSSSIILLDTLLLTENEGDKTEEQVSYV
Chain of 5HT1E serotonergic receptor (P28566 whole entry): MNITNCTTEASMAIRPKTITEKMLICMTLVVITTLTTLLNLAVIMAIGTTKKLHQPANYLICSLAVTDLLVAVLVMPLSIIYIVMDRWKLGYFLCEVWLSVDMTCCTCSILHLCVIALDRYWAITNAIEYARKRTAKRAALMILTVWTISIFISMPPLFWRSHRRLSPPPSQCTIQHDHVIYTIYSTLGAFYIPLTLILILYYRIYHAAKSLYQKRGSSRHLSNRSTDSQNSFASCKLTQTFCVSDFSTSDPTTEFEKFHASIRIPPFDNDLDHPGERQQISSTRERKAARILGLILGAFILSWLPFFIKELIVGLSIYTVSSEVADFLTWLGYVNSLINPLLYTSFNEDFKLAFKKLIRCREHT

One may read the Ki as the dissociation constant of the complex between target and ligand, obtained from inhibition or displacement. The low end stands for higher affinity, the high end for lower affinity. Usually inhibition stands for how much of the control response was suppressed. As a reminder, the % inhibition is how much of the control response was suppressed. Low readings indicate little suppression, high ones strong suppression. Turning to `Fc1ccc(C#Cc2nc(NCc3cccc(Cl)c3)c3nc[nH]c3n2)cc1F` [Compound 8], the Ki is 1020 ± 690 nM on α2C adrenergic receptor and 4000 ± 1920 nM in assay [1]. Further, the inhibition at 10 µM amounted to 83% on α2C adrenergic receptor; 39% in [1] (single concentration 10 µM); 11% in assay [2]; 0% in assay [3]; 12% on δ opioid receptor; 13% in [4]. For the same compound, the inhibition at 10 µM at α1A adrenergic receptor was determined as 0%; at α1D adrenergic receptor, 0%; at β1 adrenergic receptor, 0%; in [5], 27%; in assay [6] it was 0%; in assay [7] (single concentration 10 µM), 9%. For the same compound, in the assay on GABAA receptor, the “% inhibition at 10 µM” value amounted to 0%.

For `Clc1cccc(CNc2nc(Cl)nc3[nH]cnc23)c1` [Compound 9], the Ki was 310 nM and 314 nM at α2C adrenergic receptor; 1780 ± 350 nM in [1]; 4490 nM in assay [2]. In addition, the inhibition at 10 µM on α2C adrenergic receptor worked out at 87%; in assay [1] (single concentration 10 µM), 55%; in assay [2], 38%; in [3], 12%; on δ opioid receptor, 7%; in assay [4], 8%. Also, the inhibition at 10 µM turned out to be 26% at α1A adrenergic receptor; 0% on α1D adrenergic receptor; 37% at β1 adrenergic receptor; 12% in [5]; 0% in assay [6]; 0% in assay [7]. Also, the “% inhibition at 10 µM” value with GABAA receptor turned out to be 8%.

Regarding `O[C@@H]1[C@H](O)[C@@H]2C[C@@H]2[C@H]1n1cnc2c(NC(C3CC3)C3CC3)nc(Cl)nc21` [Compound 10], the inhibition at 10 µM was 0% at α2C adrenergic receptor; 47% in assay [1]; 0% in assay [2]; 0% in [3]; 0% on δ opioid receptor; 0% in assay [4]. The inhibition at 10 µM at α1A adrenergic receptor turned out to be 1%; at α1D adrenergic receptor, 13%; on β1 adrenergic receptor it was 4%; in assay [5] it was 0%; in [6] it was 3%; in assay [7], 0%. Besides, the Ki in [1] was 640 nM and 641 nM. Moreover, the “% inhibition at 10 µM” value with GABAA receptor is given as 11%.

For the origin of these results see PMC4032265 (PLoS ONE, 2014).
